Measurements taken from patent US9353067B2, “Heterocyclic compounds and uses thereof in the treatment of sexual disorders” (ATIR Holding S.A., priority 2011, dated 2016).

Experiments:
Adrenergic α1 receptor = test: Competitive binding, prazosin radioligand; parameters: species or system Wistar rat
Method: (§1) R-55 (which comprises a 3-hydroxyphenyl moiety) and the structurally related compounds N-108 (2-{[4-(2-ethoxyphenyl)piperazin-1-yl]methyl}quinazolin-4(3H)-one) and B-39 (7-chloro-2-((5,6-dihydro-4-(2-methoxyphenyl)pyridin-1(2H)-yl)methyl)quinazolin-4(3H)-one) were assayed for competitive binding to a variety of receptors, including D4.4 type dopamine receptor, in order to assess their specificity for D4.4 dopamine receptors.
(§2) The receptors were expressed as human recombinant proteins in CHO cells, except for adrenergic α1 and α2 receptors which were expressed in Wistar rat brain and cerebral cortex cells, respectively, and melanocortin MC4 receptor which was expressed in human recombinant HEK-293 cells. Binding was determined using the following radioligands in the presence of various concentrations of the tested compound:
0.25 nM prazosin for adrenergic α1 receptor,
(§3) The binding assays were performed in accordance with procedures described in the literature (Greengrass & Bremner, 1979; Boyajian & Leslie, 1987; Broadhurst, 1988; Lewis, 2001; Sutton, 1995; Dearry, 1990; Zhou, 1990; Grandy, 1989; Hayes, 1992; Sokoloff, 1990; Van Tol, 1991; Van Tol 1992; Sunahara, 1991; Weinshank, 1991; Schioth, 1996; Schioth 1997; Martin & Humphrey, 1994; May, 2003; Wolf & Schutz, 1997).

Adrenergic α2 receptor = test: Competitive binding, rauwolscine radioligand; parameters: species or system Wistar rat
Method: as §1, §2
0.7 nM rauwolscine for adrenergic α2 receptor,
as §3

CRF1 receptor = CRF1 receptor (Homo sapiens (Human), UniProt P34998); test: Competitive binding, (Tyr0)-CRF radioligand
Method: as §1, §2
0.05 nM)(Tyr^0)-corticotropin releasing factor (CRF) for corticotropin releasing factor CRF1 receptor,
as §3

Dopamine D1 receptor = Dopamine D1 receptor (Homo sapiens (Human), UniProt P21728); test: Competitive binding, SCH-23390 radioligand
Method: as §1, §2
(§4) 1.4 nM and 2 nM SCH-23390, respectively, for dopamine D1 and D5 receptors,
as §3

Dopamine D5 receptor = Dopamine D5 receptor (Homo sapiens (Human), UniProt P21918); test: Competitive binding, SCH-23390 radioligand
Method: as §1, §2, §4, §3

Dopamine D2S receptor = Dopamine D2S receptor (Homo sapiens (Human), UniProt P14416); test: Competitive binding, spiperone radioligand
Method: as §1, §2
(§5) 0.16 nM, 0.7 nM and 1.2 nM spiperone, respectively, for dopamine D2S, D3 and D4.4 receptors,
as §3

Dopamine D3 receptor = Dopamine D3 receptor (Homo sapiens (Human), UniProt P35462); test: Competitive binding, spiperone radioligand
Method: as §1, §2, §5, §3

Dopamine D4.4 receptor = Dopamine D4.4 receptor (Homo sapiens (Human), UniProt P21917); test: Competitive binding, spiperone radioligand
Method: as §1, §2, §5, §3

[1] = molecular target: Melanocortin MC4 receptor (Homo sapiens (Human), UniProt P32245); test: Competitive binding, NDP-α-MSH radioligand
Method: as §1, §2
0.02 nM NDP-α-MSH for melanocortin MC4 receptor,
as §3

[2] = molecular target: Serotonin 5-HT1A receptor (Homo sapiens (Human), UniProt P08908); test: Competitive binding, 8-OH-DPAT radioligand
Method: as §1, §2
1.5 nM 8-OH-DPAT for serotonin 5-HT1A receptor, and
as §3

[3] = molecular target: Serotonin 5-HT2C receptor (Homo sapiens (Human), UniProt P28335); test: Competitive binding, mesulergine radioligand
Method: as §1, §2
1 nM mesulergine for serotonin 5-HT2C receptor.
as §3

Dopamine D4.4 receptor, sequence (P21917 whole entry): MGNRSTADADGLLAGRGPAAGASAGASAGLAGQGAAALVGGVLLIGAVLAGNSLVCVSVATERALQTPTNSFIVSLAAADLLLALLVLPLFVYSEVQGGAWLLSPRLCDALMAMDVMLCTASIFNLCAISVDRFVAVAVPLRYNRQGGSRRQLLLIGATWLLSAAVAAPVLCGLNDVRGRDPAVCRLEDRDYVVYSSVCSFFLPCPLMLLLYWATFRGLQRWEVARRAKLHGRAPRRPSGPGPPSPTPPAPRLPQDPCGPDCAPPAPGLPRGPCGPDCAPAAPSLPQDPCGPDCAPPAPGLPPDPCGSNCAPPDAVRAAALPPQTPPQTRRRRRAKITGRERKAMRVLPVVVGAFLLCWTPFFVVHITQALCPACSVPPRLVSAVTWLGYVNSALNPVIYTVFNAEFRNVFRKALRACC
Dopamine D1 receptor, sequence (P21728 whole entry): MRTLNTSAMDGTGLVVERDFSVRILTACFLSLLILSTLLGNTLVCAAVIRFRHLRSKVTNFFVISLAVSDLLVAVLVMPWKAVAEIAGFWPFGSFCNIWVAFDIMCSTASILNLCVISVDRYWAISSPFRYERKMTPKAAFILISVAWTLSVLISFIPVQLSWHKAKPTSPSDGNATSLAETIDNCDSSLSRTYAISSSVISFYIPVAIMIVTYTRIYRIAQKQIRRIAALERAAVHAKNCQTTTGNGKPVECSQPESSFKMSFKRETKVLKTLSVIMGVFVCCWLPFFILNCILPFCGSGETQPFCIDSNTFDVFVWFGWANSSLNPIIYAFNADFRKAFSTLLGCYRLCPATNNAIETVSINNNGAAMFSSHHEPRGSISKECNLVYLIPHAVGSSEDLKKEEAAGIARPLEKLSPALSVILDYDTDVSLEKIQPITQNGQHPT
Serotonin 5-HT2C receptor, sequence (P28335 33-458): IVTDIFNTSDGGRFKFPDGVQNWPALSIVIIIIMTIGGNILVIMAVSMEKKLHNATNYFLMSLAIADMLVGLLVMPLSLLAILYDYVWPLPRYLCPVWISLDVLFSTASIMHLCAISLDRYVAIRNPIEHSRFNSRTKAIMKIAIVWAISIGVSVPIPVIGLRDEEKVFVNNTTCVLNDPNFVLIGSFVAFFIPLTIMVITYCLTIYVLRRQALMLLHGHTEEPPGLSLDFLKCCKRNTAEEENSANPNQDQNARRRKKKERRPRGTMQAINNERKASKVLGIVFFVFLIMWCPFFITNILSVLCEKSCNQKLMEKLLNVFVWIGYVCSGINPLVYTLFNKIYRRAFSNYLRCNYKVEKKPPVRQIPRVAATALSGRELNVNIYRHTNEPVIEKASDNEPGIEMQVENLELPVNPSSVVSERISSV
Dopamine D2S receptor, sequence (P14416 other isoform, or with tags, fused parts or gaps): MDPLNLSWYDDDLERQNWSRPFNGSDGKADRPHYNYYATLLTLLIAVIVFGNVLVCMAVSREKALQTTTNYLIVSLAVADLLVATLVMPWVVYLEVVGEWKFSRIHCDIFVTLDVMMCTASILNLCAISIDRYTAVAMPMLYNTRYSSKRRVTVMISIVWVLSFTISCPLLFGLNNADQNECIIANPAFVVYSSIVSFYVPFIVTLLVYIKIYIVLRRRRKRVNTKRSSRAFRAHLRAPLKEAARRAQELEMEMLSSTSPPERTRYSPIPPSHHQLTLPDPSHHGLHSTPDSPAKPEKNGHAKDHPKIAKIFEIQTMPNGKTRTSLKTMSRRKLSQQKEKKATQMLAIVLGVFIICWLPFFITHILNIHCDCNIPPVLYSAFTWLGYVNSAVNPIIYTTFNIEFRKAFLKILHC
CRF1 receptor, sequence (P34998 24-415): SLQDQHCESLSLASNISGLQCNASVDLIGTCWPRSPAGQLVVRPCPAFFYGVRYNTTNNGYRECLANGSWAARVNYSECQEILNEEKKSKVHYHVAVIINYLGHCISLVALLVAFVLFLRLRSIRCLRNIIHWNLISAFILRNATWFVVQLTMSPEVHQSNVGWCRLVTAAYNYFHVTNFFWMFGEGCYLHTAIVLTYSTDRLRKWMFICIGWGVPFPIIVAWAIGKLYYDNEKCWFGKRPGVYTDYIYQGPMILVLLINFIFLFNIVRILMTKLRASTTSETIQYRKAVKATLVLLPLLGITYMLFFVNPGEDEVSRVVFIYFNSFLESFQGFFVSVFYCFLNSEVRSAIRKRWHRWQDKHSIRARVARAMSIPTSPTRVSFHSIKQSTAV
Dopamine D5 receptor, sequence (P21918 whole entry): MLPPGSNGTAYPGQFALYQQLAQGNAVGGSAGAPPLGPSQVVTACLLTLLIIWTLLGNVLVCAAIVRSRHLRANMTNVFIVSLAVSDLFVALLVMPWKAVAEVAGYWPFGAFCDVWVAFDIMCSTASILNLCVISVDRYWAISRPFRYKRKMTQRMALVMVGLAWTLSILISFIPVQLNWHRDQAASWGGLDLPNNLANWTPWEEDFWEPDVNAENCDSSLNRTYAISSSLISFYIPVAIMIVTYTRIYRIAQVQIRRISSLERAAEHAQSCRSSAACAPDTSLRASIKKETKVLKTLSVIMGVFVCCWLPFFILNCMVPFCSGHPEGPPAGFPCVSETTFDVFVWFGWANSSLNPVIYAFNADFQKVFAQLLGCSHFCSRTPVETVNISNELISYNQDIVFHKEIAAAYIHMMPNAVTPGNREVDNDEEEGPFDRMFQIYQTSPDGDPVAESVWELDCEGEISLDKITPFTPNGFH
Melanocortin MC4 receptor, sequence (P32245 whole entry): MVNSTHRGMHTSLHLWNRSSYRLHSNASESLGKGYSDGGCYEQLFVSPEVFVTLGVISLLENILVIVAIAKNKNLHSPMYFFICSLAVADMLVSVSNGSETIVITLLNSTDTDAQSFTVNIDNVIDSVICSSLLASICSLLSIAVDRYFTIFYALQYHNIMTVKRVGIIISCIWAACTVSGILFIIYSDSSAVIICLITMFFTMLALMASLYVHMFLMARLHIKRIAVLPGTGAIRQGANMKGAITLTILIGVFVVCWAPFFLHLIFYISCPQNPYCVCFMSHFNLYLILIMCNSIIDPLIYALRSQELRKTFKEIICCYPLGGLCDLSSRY
Serotonin 5-HT1A receptor, sequence (P08908 whole entry): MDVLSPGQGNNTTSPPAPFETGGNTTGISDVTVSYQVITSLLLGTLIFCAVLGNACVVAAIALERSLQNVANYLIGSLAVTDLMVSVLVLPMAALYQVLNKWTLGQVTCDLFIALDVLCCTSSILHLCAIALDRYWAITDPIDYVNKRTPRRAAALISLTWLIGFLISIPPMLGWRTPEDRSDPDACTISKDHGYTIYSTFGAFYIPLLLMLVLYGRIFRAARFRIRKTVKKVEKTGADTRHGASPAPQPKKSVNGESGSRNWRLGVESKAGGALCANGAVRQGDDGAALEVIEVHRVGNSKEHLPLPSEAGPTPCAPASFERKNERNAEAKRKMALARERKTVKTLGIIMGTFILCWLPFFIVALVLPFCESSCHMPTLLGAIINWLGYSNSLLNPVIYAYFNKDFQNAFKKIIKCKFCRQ
Dopamine D3 receptor, sequence (P35462 whole entry): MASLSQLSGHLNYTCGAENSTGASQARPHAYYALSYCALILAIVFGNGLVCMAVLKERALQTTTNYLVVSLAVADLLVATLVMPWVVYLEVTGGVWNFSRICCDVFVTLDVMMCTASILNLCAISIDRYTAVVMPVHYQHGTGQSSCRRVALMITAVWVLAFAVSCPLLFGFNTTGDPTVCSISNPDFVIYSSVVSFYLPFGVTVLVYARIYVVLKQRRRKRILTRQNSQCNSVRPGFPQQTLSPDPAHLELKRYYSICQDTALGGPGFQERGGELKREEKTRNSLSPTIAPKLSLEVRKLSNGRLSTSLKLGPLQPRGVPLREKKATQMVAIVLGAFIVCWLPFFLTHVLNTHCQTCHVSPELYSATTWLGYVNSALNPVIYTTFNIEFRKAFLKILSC

COc1ccccc1C1=CCN(Cc2nc3cc(Cl)ccc3c(=O)[nH]2)CC1 [Compound B-39, 7-chloro-2-((5,6-dihydro-4-(2-methoxyphenyl)pyridin-1(2H)-yl)methyl)quinazolin-4(3H)-one, reference compound]
Competitive binding (%) at 5 μM of tested compound (Adrenergic α1 receptor): 54%
Competitive binding (%) at 5 μM of tested compound (Adrenergic α2 receptor): 72%
Competitive binding (%) at 5 μM of tested compound (CRF1 receptor): −5%
Competitive binding (%) at 5 μM of tested compound (Dopamine D1 receptor): 4%
Competitive binding (%) at 5 μM of tested compound (Dopamine D5 receptor): 7%
Competitive binding (%) at 5 μM of tested compound (Dopamine D2S receptor): 46%
Competitive binding (%) at 5 μM of tested compound (Dopamine D3 receptor): 32%
Competitive binding (%) at 5 μM of tested compound (Dopamine D4.4 receptor; Dopamine D4.4 receptor, 5 μM): 57%
binding affinity to the D4.4 receptor (in words) (Dopamine D4.4 receptor; Table 8): high binding affinity
Competitive binding (%) at 5 μM of tested compound [1]: 5%
Competitive binding (%) at 5 μM of tested compound [2]: 89%
Competitive binding (%) at 5 μM of tested compound [3]: 56%
